Measurements from patent publication US5733924A, “DC 107 derivatives and treatment methods” (Kyowa Hakko Kogyo Co., Ltd., priority 1995, dated 1998).
≈ marks a conversion by molar mass, not a printed value. Like-named read-outs stand apart in the source and are kept apart here.

How the values were obtained:
[1] = system: Staphylococcus aureus ATCC 6538P; test: Antibacterial activity, agar dilution method (MIC); assay type: cell-based; settings: ATCC6538P
From the text: (§1) The antibacterial activity as determined by the agar dilution method using a medium prepared by dissolving 3 g of Bacto-Tryptone (a product of Difco Laboratories), 3 g of a meat extract, 1 g of an yeast extract, 1 g of glucose and 16 g of agar in one liter of water (pH 7).
SA: Staphylococcus aureus ATCC 6538P

[2] = system: Bacillus subtilis No. 10707; test: Antibacterial activity, agar dilution method (MIC); assay type: cell-based
From the text: as §1
BS: Bacillus subtilis No. 10707

[3] = system: Klebsiella pneumoniae ATCC 10031; test: Antibacterial activity, agar dilution method (MIC); assay type: cell-based
From the text: as §1
KP: Klebsiella pneumoniae ATCC 10031

[4] = system: Enterococcus faecium ATCC 10541; test: Antibacterial activity, agar dilution method (MIC); assay type: cell-based
From the text: as §1
EF: Enterococcus faecium ATCC 10541

P388 Leukemia = test: Antitumor activity against P388 leukemia in mice (increased life span); assay type: in vivo, CDF1 mice; settings: Mus musculus, P388, ip, 720 h
Description: Ascites were collected from the abdominal cavity of P388 ascites tumor-bearing cancer mice (DBA/2) on the 7th day after transplantation. A number of P388 cells in the ascites was counted, and a tumor cell floating liquid of 5×10^6 cells/ml was prepared using a physiological saline solution. Then, 0.2 ml of the solution containing 1×10^6 cells was transplanted into the abdominal cavity of CDF1 mice having a body weight of from 20 to 25 g.
The effect of the test compound was determined in terms of the ratio of average survival days of the group administered with the test compound to average survival days of the control group (non-medicated group) (i.e., an increased life span, ILS%).

[5] = SA: Staphylococcus aureus ATCC 6538P, agar dilution, pH 7, read-out: MIC (minimum growth inhibitory concentration)
[6] = BS: Bacillus subtilis No. 10707, pH 7, read-out: MIC (minimum growth inhibitory concentration)
[7] = ATCC10031, KP: Klebsiella pneumoniae ATCC 10031, agar dilution, pH 7, read-out: MIC (minimum growth inhibitory concentration)
[8] = ATCC10541, EF: Enterococcus faecium ATCC 10541, pH 7, read-out: MIC (minimum growth inhibitory concentration)
[9] = single i.p. 24 hours after transplantation, CDF1 mice, 30 days observation
[10] = 4.0 mg/kg, single i.p. 24 hours after transplantation, CDF1 mice, 30 days observation, read-out: ILS (increased life span)
[11] = single i.p. 24 hours after transplantation, CDF1 mice, 30 days observation, read-out: ILS (increased life span)
[12] = read-out: ILS (increased life span)

## COC1(OC2C=C(C)CCC3(C(C)(O)C(=O)SCc4oc(=O)oc4C)CC(=O)N(C(C)c4nc(cs4)C=CC=CC2=O)[S+]3[O-])CCCCC1 (stereo not drawn) [Compound 126]
[1]; [5]
  MIC: 1 µg/mL (≈ 1.36 µM)
[2]; [6]
  MIC: 0.033 µg/mL (≈ 0.0449 µM)
[3]; [7]
  MIC: 4.2 µg/mL (≈ 5.71 µM)
[4]; [8]
  MIC: 1 µg/mL (≈ 1.36 µM)

## COC1(OC2C=C(C)CCC3(C(C)(O)C(=O)SCc4oc(=O)oc4C)CC(=O)N(C(C)c4nc(cs4)C=CC=CC2=O)[S+]3[O-])CCSCC1 (stereo not drawn) [Compound 127]
P388 Leukemia; [9]
  ILS at 16 mg/kg: 52%
[1]; [5]
  MIC: 0.65 µg/mL (≈ 0.863 µM)
[2]; [6]
  MIC: 0.041 µg/mL (≈ 0.0545 µM)
[3]; [7]
  MIC: 2.6 µg/mL (≈ 3.45 µM)
[4]; [8]
  MIC: 0.65 µg/mL (≈ 0.863 µM)

## CC1=CC(OC(=O)CN(C)C(=O)OC(C)(C)C)C(=O)C=CC=Cc2csc(n2)C(C)N2C(=O)CC(C(C)(O)C(=O)SCc3oc(=O)oc3C)(CC1)[S+]2[O-] (stereo not drawn) [Compound 161]
P388 Leukemia; [10]
  ILS at 4 mg/kg: 65%

## CC1=CC(OC(=O)CN(C)C(=O)OCc2ccccc2)C(=O)C=CC=Cc2csc(n2)C(C)N2C(=O)CC(C(C)(O)C(=O)SCc3oc(=O)oc3C)(CC1)[S+]2[O-] (stereo not drawn) [Compound 162]
P388 Leukemia; [11]
  ILS at 8 mg/kg: 57%

## CC1=CC(OC(=O)[C@H](C)NC(=O)OCc2ccccc2)C(=O)C=CC=Cc2csc(n2)C(C)N2C(=O)CC(C(C)(O)C(=O)SCc3oc(=O)oc3C)(CC1)[S+]2[O-] (stereo partly drawn) [Compound 163]
P388 Leukemia; [12]
  ILS at 2 mg/kg: 46%

## CC1=CC(OC(=O)CNC(=O)CNC(=O)OCc2ccccc2)C(=O)C=CC=Cc2csc(n2)C(C)N2C(=O)CC(C(C)(O)C(=O)SCc3oc(=O)oc3C)(CC1)[S+]2[O-] (stereo not drawn) [Compound 166]
P388 Leukemia; [11]
  ILS at 8 mg/kg: 64%

## CC1=CC(OC(=O)CNC(=O)CNC(=O)c2ccccc2)C(=O)C=CC=Cc2csc(n2)C(C)N2C(=O)CC(C(C)(O)C(=O)SCc3oc(=O)oc3C)(CC1)[S+]2[O-] (stereo not drawn) [Compound 167]
P388 Leukemia; [9]
  ILS at 16 mg/kg: 90%
[1]; [5]
  MIC: 2.1 µg/mL (≈ 2.5 µM)
[2]; [6]
  MIC: 2.1 µg/mL (≈ 2.5 µM)
[3]; [7]
  MIC: 2.1 µg/mL (≈ 2.5 µM)
[4]; [8]
  MIC: 2.1 µg/mL (≈ 2.5 µM)

## CC1=CC(OC(=O)CNC(=O)[C@H](C)NC(=O)OCc2ccccc2)C(=O)C=CC=Cc2csc(n2)C(C)N2C(=O)CC(C(C)(O)C(=O)SCc3oc(=O)oc3C)(CC1)[S+]2[O-] (stereo partly drawn) [Compound 168]
P388 Leukemia; [10]
  ILS at 4 mg/kg: 58%

## CC1=CC(OC(=O)CNC(=O)CCNC(=O)OCc2ccccc2)C(=O)C=CC=Cc2csc(n2)C(C)N2C(=O)CC(C(C)(O)C(=O)SCc3oc(=O)oc3C)(CC1)[S+]2[O-] (stereo not drawn) [Compound 169]
P388 Leukemia; [9]
  ILS at 16 mg/kg: 91%

## CC1=CC(OC(=O)CNC(=O)CCCNC(=O)OCc2ccccc2)C(=O)C=CC=Cc2csc(n2)C(C)N2C(=O)CC(C(C)(O)C(=O)SCc3oc(=O)oc3C)(CC1)[S+]2[O-] (stereo not drawn) [Compound 171]
P388 Leukemia; [9]
  ILS at 16 mg/kg: 63%

## CC1=CC(OC(=O)CNC(=O)CN(C)C(=O)OCc2ccccc2)C(=O)C=CC=Cc2csc(n2)C(C)N2C(=O)CC(C(C)(O)C(=O)SCc3oc(=O)oc3C)(CC1)[S+]2[O-] (stereo not drawn) [Compound 172]
P388 Leukemia; [12]
  ILS at 4 mg/kg: 65%
[1]; Staphylococcus aureus, pH 7, read-out: MIC (minimum growth inhibitory concentration)
  MIC: 2.1 µg/mL (≈ 2.37 µM)
[2]; Bacillus subtilis, NO.10707, pH 7, read-out: MIC (minimum growth inhibitory concentration), BS: Bacillus subtilis No. 10707
  MIC: 1 µg/mL (≈ 1.13 µM)
[3]; Klebsiella pneumoniae, ATCC10031, pH 7, read-out: MIC (minimum growth inhibitory concentration)
  MIC: 1 µg/mL (≈ 1.13 µM)
[4]; Enterococcus faecium, ATCC10541, pH 7, read-out: MIC (minimum growth inhibitory concentration), EF: Enterococcus faecium ATCC 10541
  MIC: 1 µg/mL (≈ 1.13 µM)

## CC1=CC(OC(=O)CNC(=O)C(CC(C)C)NC(=O)OCc2ccccc2)C(=O)C=CC=Cc2csc(n2)C(C)N2C(=O)CC(C(C)(O)C(=O)SCc3oc(=O)oc3C)(CC1)[S+]2[O-] (stereo not drawn) [Compound 173]
P388 Leukemia; [11]
  ILS at 8 mg/kg: 64%

## CC1=CC(OC(=O)CN(C)C(=O)CCNC(=O)OCc2ccccc2)C(=O)C=CC=Cc2csc(n2)C(C)N2C(=O)CC(C(C)(O)C(=O)SCc3oc(=O)oc3C)(CC1)[S+]2[O-] (stereo not drawn) [Compound 175]
P388 Leukemia; [9]
  ILS at 16 mg/kg: 65%

## CC1=CC(OC(=O)CCNC(=O)CNC(=O)OCc2ccccc2)C(=O)C=CC=Cc2csc(n2)C(C)N2C(=O)CC(C(C)(O)C(=O)SCc3oc(=O)oc3C)(CC1)[S+]2[O-] (stereo not drawn) [Compound 176]
P388 Leukemia; [9]
  ILS at 16 mg/kg: 75%

## CC1=CC(OC(=O)CCNC(=O)CCNC(=O)OCc2ccccc2)C(=O)C=CC=Cc2csc(n2)C(C)N2C(=O)CC(C(C)(O)C(=O)SCc3oc(=O)oc3C)(CC1)[S+]2[O-] (stereo not drawn) [Compound 177]
P388 Leukemia; 32 mg/kg, single i.p. 24 hours after transplantation, CDF1 mice, 30 days observation
  ILS at 32 mg/kg: 52%
